Measurements: patent US20250282776A1, “Bicyclic TLR7 Agonists and Uses Thereof” (Bristol-Myers Squibb Company, priority 2024, published 2025)

biological target: T1, human TLR8 (hTLR8) (Homo sapiens, UniProt Q9NR97); assay: Human TLR8 agonist activity assay (measured in a similar manner); format: cell-based; conditions: HEK-Blue TLR cells, SEAP reporter, measured in a similar manner to TLR7; some values average of multiple measurements
T1 construct: expressed in transfected cells
T1 sequence (Q9NR97 27-1041): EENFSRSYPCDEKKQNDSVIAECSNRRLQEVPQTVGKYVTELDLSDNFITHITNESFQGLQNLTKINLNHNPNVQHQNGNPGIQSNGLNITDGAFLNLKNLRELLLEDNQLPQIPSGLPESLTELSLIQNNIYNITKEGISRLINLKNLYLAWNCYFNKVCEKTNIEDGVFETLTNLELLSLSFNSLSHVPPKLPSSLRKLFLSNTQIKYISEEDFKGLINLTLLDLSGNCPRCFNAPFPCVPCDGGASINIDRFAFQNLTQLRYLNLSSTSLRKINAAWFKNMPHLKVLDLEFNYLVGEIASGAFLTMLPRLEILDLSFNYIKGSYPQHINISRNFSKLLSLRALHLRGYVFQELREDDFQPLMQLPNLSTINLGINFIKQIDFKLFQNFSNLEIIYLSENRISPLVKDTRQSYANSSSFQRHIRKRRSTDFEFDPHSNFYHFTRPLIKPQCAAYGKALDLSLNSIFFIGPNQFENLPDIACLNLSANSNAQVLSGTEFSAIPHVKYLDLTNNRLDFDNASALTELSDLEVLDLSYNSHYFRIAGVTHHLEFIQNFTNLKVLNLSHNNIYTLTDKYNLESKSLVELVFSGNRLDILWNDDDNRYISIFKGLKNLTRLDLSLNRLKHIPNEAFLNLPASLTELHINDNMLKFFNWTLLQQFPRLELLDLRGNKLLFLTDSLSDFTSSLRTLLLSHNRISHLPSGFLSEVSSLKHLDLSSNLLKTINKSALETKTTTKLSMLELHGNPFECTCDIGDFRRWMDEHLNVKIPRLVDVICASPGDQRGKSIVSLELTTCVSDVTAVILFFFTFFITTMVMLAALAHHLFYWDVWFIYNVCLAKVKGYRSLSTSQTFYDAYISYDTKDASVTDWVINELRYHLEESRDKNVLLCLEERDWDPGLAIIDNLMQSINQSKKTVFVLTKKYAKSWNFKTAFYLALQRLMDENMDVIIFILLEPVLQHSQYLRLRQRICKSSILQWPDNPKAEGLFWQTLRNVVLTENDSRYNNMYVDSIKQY
Method: This procedure describes a method for assaying human TLR7 (hTLR7) and human TLR8 (hTLR8) agonist activity of the compounds disclosed herein.
HEK-Blue™ TLR7 cells were added to each well of a 384-well tissue-culture plate (15,000 cells per well) and incubated 16-18 h at 37° C., 5% CO2. Compounds (100 nL) were dispensed into wells containing the HEK-Blue™ TLR cells and the treated cells were incubated at 37° C., 5% CO2. After 18 h, ten microliters 5 of freshly prepared Quanti-Blue™ reagent (Invivogen) was added to each well and incubated for 30 min (37° C., […]). SLAP levels were measured using an Envision plate reader (OD=620 nm). […] Some of the reported activities were the average of multiple measurements.
TLR8 activity was measured in a similar manner.

Row | EC50 [nM] | Compound
1 | 1870 | CCCCN(CCO)c1nc(N)nc2cn(Cc3cnc(CN[C@H]4C[C@H](OC)C4)cc3OC)nc12 [Compound 124]
2 | 2850 | CCCCN(CCO)c1nc(N)nc2cn(Cc3ccc(CNC4CCOC(C)(C)C4)c4cn[nH]c34)nc12 (stereo not drawn) [Compound 209]
3 | 1740 | CCCN(CCO)c1nc(N)nc2cn(Cc3ccc(CNC4CCC4)cc3OC)nc12 [Compound 43]
4 | 1820 | CCC[C@@H](CO)N(C)c1nc(N)nc2cn(Cc3ccc(CN4CCCC4)cc3OC)nc12 [Compound 87]
5 | 689 | CCCCN(CCO)c1nc(N)nc2cn(Cc3ccc(CNC4CCOC(C)C4)cc3OC)nc12 (stereo not drawn) [Compound 126]
6 | 1860 | CCCCN(CCO)c1nc(N)nc2cn(Cc3ccc(CNC4CCOCC4)c4ncsc34)nc12 [Compound 210]
7 | 1970 | CCCCN(CCO)c1nc(N)nc2cn(Cc3ccc(CNCCO)cc3)nc12 [Compound 160]
8 | 2400 | CCCCN(CCO)c1nc(N)nc2cn(Cc3ccc(CNC4CCC(F)(F)CC4)c4scnc34)nc12 [Compound 203]
9 | 1610 | CCCCN(CCO)c1nc(N)nc2cn(Cc3ccc(CNC4(C)CCC4)cc3C(F)F)nc12 [Compound 167]
10 | 1270 | CCCCN(CCO)c1nc(N)nc2cn(Cc3ccc(CNC4CCOCC4)c4cn[nH]c34)nc12 [Compound 204]
11 | 2160 | CCCCN(CCO)c1nc(N)nc2cn(Cc3ccc(CNCC4CC5(CCC5)C4)c4cccnc34)nc12 [Compound 67]
12 | 460 | CCCCN(CCO)c1nc(N)nc2cn(Cc3ccc(CNC4(COC)CCOCC4)cc3OC)nc12 [Compound 165]
13 | 1340 | CCCCN(CCO)c1nc(N)nc2cn(Cc3ccc(CN[C@H]4CCOC4)c4nccnc34)nc12 [Compound 205]
14 | 2710 | CCCCN(CCO)c1nc(N)nc2cn(Cc3ccc(CNCCO)cc3C(F)F)nc12 [Compound 129]
15 | 1190 | CCCCN(CCO)c1nc(N)nc2cn(Cc3ccc(CNC4CC5(COC5)C4)cc3)nc12 [Compound 159]
